Results published in ChEMBL document CHEMBL5584237, “Design, synthesis, biological evaluation, and in silico studies of novel pyridopyridine derivatives as anticancer candidates targeting FMS kinase” (Eur J Med Chem, 2024).
Active and inactive are the calls of the source. The calls are words filed in the database; no cut-off is given here.

What was measured:
[1] = Selectivity index, ratio of IC50 for human WI-38 cells to IC50 for human DU-145 cells
[2] = Selectivity index, ratio of IC50 for human WI-38 cells to IC50 for human M14 cells
[3] = Selectivity index, ratio of IC50 for human HS27 cells to IC50 for human K562 cells
Hep 3B2 [4] = assay: Cell cycle arrest in human Hep3B cells assessed as upregulation of cyclin B1 expression at 0.5 x IC50 to IC50 measured after 48 hrs by Western blot analysis; assay type: functional, cell-based
[5] = Selectivity index, ratio of IC50 for human HS27 cells to IC50 for human SF-295 cells
[6] = Selectivity index, ratio of IC50 for human WI-38 cells to IC50 for human MCF7 cells; assay type: toxicity; conditions: WI-38 cells and MCF7 cells, read-out: Ratio IC50
CCRF-CEM = assay: Antiproliferative activity against human CCRF-CEM cells assessed as cell growth inhibition; assay type: functional
PC-3 = assay: Antiproliferative activity against human PC-3 cells assessed as cell growth inhibition; assay type: functional
[7] = Selectivity index, ratio of IC50 for human WI-38 cells to IC50 for human LOX IMVI cells
[8] = Selectivity index, ratio of IC50 for human WI-38 cells to IC50 for human HCT-15 cells
SNB-75 = assay: Antiproliferative activity against human SNB-75 cells assessed as cell growth inhibition; assay type: functional
[9] = Selectivity index, ratio of IC50 for human WI-38 cells to IC50 for human SNB-75 cells
[10] = Selectivity index, ratio of IC50 for human WI-38 cells to IC50 for human COLO 205 cells
[11] = Selectivity index, ratio of IC50 for human WI-38 cells to IC50 for human OVCAR-4 cells
[12] = Selectivity index, ratio of IC50 for human WI-38 cells to IC50 for human CAKI-1 cells
[13] = Selectivity index, ratio of IC50 for human WI-38 cells to IC50 for human SR cells; assay type: toxicity; conditions: WI-38 cells and SR cells, read-out: Ratio IC50
[14] = Selectivity index, ratio of IC50 for human WI-38 cells to IC50 for human HCT-116 cells; assay type: toxicity; conditions: WI-38 cells and HCT-116 cells, read-out: Ratio IC50
[15] = Selectivity index, ratio of IC50 for human WI-38 cells to IC50 for human OVCAR-3 cells
Hep 3B2 [16] = assay: Cell cycle arrest in human Hep3B cells assessed as downregulation of cyclin D1 expression at 0.5 x IC50 to IC50 measured after 48 hrs by Western blot analysis; assay type: functional, cell-based
MCF7 = assay: Antiproliferative activity against human MCF7 cells assessed as cell growth inhibition; assay type: functional
[17] = Cytotoxicity against human WI-38 cells assessed as reduction in cell growth measured after 48 hrs by MTT assay; assay type: toxicity, cell-based
[18] = Selectivity index, ratio of IC50 for human HS27 cells to IC50 for human MDA-MB-231 cells
[19] = Selectivity index, ratio of IC50 for human HS27 cells to IC50 for human MDA-MB-435 cells
[20] = Selectivity index, ratio of IC50 for human HS27 cells to IC50 for human SNB-75 cells
NCI-H460 = assay: Antiproliferative activity against human NCI-H460 cells assessed as cell growth inhibition; assay type: functional
[21] = Selectivity index, ratio of IC50 for human HS27 cells to IC50 for human PC-3 cells
MDA-MB-468 = assay: Antiproliferative activity against human MDA-MB-468 cells assessed as cell growth inhibition; assay type: functional
[22] = Selectivity index, ratio of IC50 for human HS27 cells to IC50 for human OVCAR-4 cells
[23] = Selectivity index, ratio of IC50 for human WI-38 cells to IC50 for human NCI-H460 cells; assay type: toxicity; conditions: WI-38 cells and NCI-H460 cells, read-out: Ratio IC50
[24] = Selectivity index, ratio of IC50 for human HS27 cells to IC50 for human COLO 205 cells
Hep 3B2 [25] = assay: cells; conditions: Homo sapiens, Hep3B, 48 h
Hep 3B2 [26] = assay: Induction of apoptosis in human Hep3B cells assessed as increase in cleaved caspase-3 expression at 3.38 uM measured after 48 hrs by Western blot analysis relative to control; assay type: functional
[27] = Selectivity index, ratio of IC50 for human HS27 cells to IC50 for human A549 cells
[28] = Selectivity index, ratio of IC50 for human WI-38 cells to IC50 for human SK-MEL-28 cells
[29] = Selectivity index, ratio of IC50 for human WI-38 cells to IC50 for human MDA-MB-231 cells; assay type: toxicity; conditions: WI-38 cells and MDA-MB-231 cells, read-out: Ratio IC50
[30] = Selectivity index, ratio of IC50 for human HS27 cells to IC50 for human MCF7 cells
[31] = Selectivity index, ratio of IC50 for human HS27 cells to IC50 for human HT-29 cells
[32] = Selectivity index, ratio of IC50 for human HS27 cells to IC50 for human HCT-15 cells
[33] = Selectivity index, ratio of IC50 for human HS27 cells to IC50 for human SF-539 cells
Hs-578T = assay: Antiproliferative activity against human Hs-578T cells assessed as cell growth inhibition; assay type: functional
A549 = assay: Antiproliferative activity against human A549 cells assessed as cell growth inhibition; assay type: functional
[34] = Selectivity index, ratio of IC50 for human HS27 cells to IC50 for human M14 cells
786-0 = assay: Antiproliferative activity against human 786-0 cells assessed as cell growth inhibition; assay type: functional
[35] = Selectivity index, ratio of IC50 for human WI-38 cells to IC50 for human HT-29 cells; assay type: toxicity; conditions: WI-38 cells and HT-29 cells, read-out: Ratio IC50
[36] = Selectivity index, ratio of IC50 for human WI-38 cells to IC50 for human 786-0 cells
[37] = Selectivity index, ratio of IC50 for human WI-38 cells to IC50 for human SN12C cells
[38] = Selectivity index, ratio of IC50 for human HS27 cells to IC50 for human Malme-3M cells
[39] = Selectivity index, ratio of IC50 for human WI-38 cells to IC50 for human Hs-578T cells
HT-29 = assay: Antiproliferative activity against human HT-29 cells assessed as cell growth inhibition; assay type: functional

GI50 (PC-3): 760 nM
GI50 (MCF7): 630 nM
GI50 (NCI-H460): 620 nM
GI50 (MDA-MB-468): 770 nM
IC50 (Hep 3B2 [25]): 1690 nM
GI50 (786-0): 500 nM
GI50 (HT-29): 670 nM
Compound: CCN1CCN(c2ccc(NC(=O)Nc3ccc(-c4cc(C(=O)NC(C)C)c5ncccc5n4)cc3)cc2C(F)(F)F)CC1
Ratio IC50 [1]: 21.6
Ratio IC50 [2]: 8.62
Ratio IC50 [3]: 8
Activity (Hep 3B2 [4]): inactive
Ratio IC50 [5]: 4.52
selectivity ratio [6]: 10.1
TGI (CCRF-CEM): 3100 nM
TGI (PC-3): 2100 nM
Ratio IC50 [7]: 8.62
Ratio IC50 [8]: 18.84
GI50 (SNB-75): 980 nM
TGI (SNB-75): 5140 nM
Ratio IC50 [9]: 8.71
Ratio IC50 [10]: 18.84
Ratio IC50 [11]: 5.89
Ratio IC50 [12]: 10.52
selectivity ratio [13]: 15.4
selectivity ratio [14]: 18.8
Ratio IC50 [15]: 5.89
Activity (Hep 3B2 [16]): inactive
TGI (MCF7): 1500 nM
IC50 at 48 h [17]: 16200 nM
Ratio IC50 [18]: 5.22
Ratio IC50 [19]: 4.47
Ratio IC50 [20]: 4.52
TGI (NCI-H460): 1180 nM
Ratio IC50 [21]: 11.2
TGI (MDA-MB-468): 1850 nM
Ratio IC50 [22]: 3.05
selectivity ratio [23]: 6.4
Ratio IC50 [24]: 9.77
fold change (FC) (Hep 3B2 [26]): 473.5
Ratio IC50 [27]: 3.32
Ratio IC50 [28]: 8.62
selectivity ratio [29]: 10.1
Ratio IC50 [30]: 5.22
Ratio IC50 [31]: 9.77
Ratio IC50 [32]: 9.77
Ratio IC50 [33]: 4.52
GI50 (Hs-578T): 880 nM
TGI (Hs-578T): 3450 nM
TGI (A549): 5770 nM
Ratio IC50 [34]: 4.47
TGI (786-0): 1030 nM
selectivity ratio [35]: 18.8
Ratio IC50 [36]: 10.52
Ratio IC50 [37]: 10.52
Ratio IC50 [38]: 4.47
Ratio IC50 [39]: 10.06
TGI (HT-29): 1320 nM
